Laboratory results: ChEMBL document CHEMBL1201862, “PubChem BioAssay data set” (2004)
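How tested: cells in 96-well plates exposed to compound for 48 hours at five concentrations. The concentration for 50% growth inhibition is given as GI50.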 Calls of active or inactive are those of the source. Cut-off read from the data, not from the text of the source: active = GI50 up to about 1.1 µM and inactive = higher.

How the values were obtained:
Experiment in all cases: NCI tumour cell line growth inhibition, 48 h
M19-MEL = system: M19-MEL
SN12C = system: SN12C
COLO 205 = system: COLO 205
RPMI-8226 = system: RPMI-8226
UACC-257 = system: UACC-257
CCRF-CEM = system: CCRF-CEM
NCI-H23 = system: NCI-H23
SK-MEL-28 = system: SK-MEL-28
NCI-H460 = system: NCI-H460
SK-OV-3 = system: SK-OV-3
SW-620 = system: SW-620
HOP-92 = system: HOP-92
HOP-62 = system: HOP-62
TK-10 = system: TK-10
U-251 = system: U-251
MOLT-4 = system: MOLT-4
SNB-75 = system: SNB-75
UO-31 = system: UO-31
SF-539 = system: SF-539
786-0 = system: 786-0
CAKI-1 = system: CAKI-1
KM-20L2 = system: KM-20L2
OVCAR-5 = system: OVCAR-5
SF-295 = system: SF-295
SNB-78 = system: SNB-78
LOX IMVI = system: LOX IMVI
DMS-273 = system: DMS-273
A549 = system: A549
OVCAR-3 = system: OVCAR-3
SK-MEL-5 = system: SK-MEL-5
HCT-15 = system: HCT-15
HCC 2998 = system: HCC 2998
NCI-H522 = system: NCI-H522
DLD-1 = system: DLD-1
Malme-3M = system: Malme-3M
RXF 393 = system: RXF 393
HL-60 = system: HL-60
HT-29 = system: HT-29
DMS-114 = system: DMS-114
KM12 = system: KM12
SNB-19 = system: SNB-19
HOP-18 = system: HOP-18
K562 = system: K562
SF-268 = system: SF-268
A498 = system: A498
SK-MEL-2 = system: SK-MEL-2
EKVX = system: EKVX
UACC-62 = system: UACC-62
OVCAR-8 = system: OVCAR-8
IGROV-1 = system: IGROV-1
T47D = system: T47D
ACHN = system: ACHN
MDA-N = system: MDA-N
LXFL 529 = system: LXFL 529
NCI-H226 = system: NCI-H226
SR = system: SR
DU-145 = system: DU-145
MCF7 = system: MCF7
PC-3 = system: PC-3
HCT-116 = system: HCT-116
MDA-MB-435 = system: MDA-MB-435
OVCAR-4 = system: OVCAR-4
M14 = system: M14

Cc1nc(N)sc1C(=O)/C=C/c1ccc([N+](=O)[O-])cc1
GI50 (M19-MEL): > 100 µM (inactive) | GI50 (SN12C): > 100 µM (inactive) | GI50 (COLO 205): > 100 µM (inactive) | GI50 (RPMI-8226): > 100 µM (inactive) | GI50 (UACC-257): > 100 µM (inactive) | GI50 (CCRF-CEM): > 100 µM (inactive) | GI50 (NCI-H23): > 100 µM (inactive) | GI50 (SK-MEL-28): > 100 µM (inactive) | GI50 (NCI-H460): > 100 µM (inactive) | GI50 (SK-OV-3): > 100 µM (inactive) | GI50 (SW-620): > 100 µM (inactive) | GI50 (HOP-92): > 100 µM (inactive) | GI50 (HOP-62): > 100 µM (inactive) | GI50 (TK-10): > 100 µM (inactive) | GI50 (U-251): > 100 µM (inactive) | GI50 (MOLT-4): > 100 µM (inactive) | GI50 (SNB-75): 64.6 µM (inactive) | GI50 (UO-31): > 100 µM (inactive) | GI50 (SF-539): > 100 µM (inactive) | GI50 (786-0): > 100 µM (inactive) | GI50 (CAKI-1): > 100 µM (inactive) | GI50 (KM-20L2): > 100 µM (inactive) | GI50 (OVCAR-5): > 100 µM (inactive) | GI50 (SF-295): > 100 µM (inactive) | GI50 (SNB-78): > 100 µM (inactive) | GI50 (LOX IMVI): > 100 µM (inactive) | GI50 (DMS-273): > 100 µM (inactive) | GI50 (A549): > 100 µM (inactive) | GI50 (OVCAR-3): > 100 µM (inactive) | GI50 (SK-MEL-5): > 100 µM (inactive) | GI50 (HCT-15): > 100 µM | GI50 (HCC 2998): > 100 µM (inactive) | GI50 (NCI-H522): > 100 µM (inactive) | GI50 (DLD-1): > 100 µM (inactive) | GI50 (Malme-3M): > 100 µM (inactive) | GI50 (RXF 393): > 100 µM (inactive) | GI50 (HL-60): > 100 µM (inactive) | GI50 (HT-29): > 100 µM (inactive) | GI50 (DMS-114): > 100 µM (inactive) | GI50 (KM12): > 100 µM (inactive) | GI50 (SNB-19): > 100 µM (inactive) | GI50 (HOP-18): > 100 µM (inactive) | GI50 (K562): > 100 µM (inactive) | GI50 (SF-268): > 100 µM (inactive) | GI50 (A498): > 100 µM (inactive) | GI50 (SK-MEL-2): > 100 µM (inactive) | GI50 (EKVX): > 100 µM (inactive) | GI50 (UACC-62): > 100 µM (inactive) | GI50 (OVCAR-8): > 100 µM (inactive) | GI50 (IGROV-1): > 100 µM (inactive)

COC1CC(C)C(OC)c2cc(O)cc(c2O)NC(=O)/C(C)=C/C=C\C(C)C(OC(N)=O)/C(C)=C\C(C)C1OC (configuration not stated)
GI50 (M19-MEL): 0.437 µM (active) | GI50 (SN12C): 0.36 µM (active) | GI50 (COLO 205): 0.0516 µM (active) | GI50 (T47D): 0.266 µM (active) | GI50 (RPMI-8226): 0.152 µM (active) | GI50 (UACC-257): 0.397 µM (active) | GI50 (CCRF-CEM): 0.192 µM (active) | GI50 (SK-MEL-28): 0.336 µM (active) | GI50 (NCI-H460): 0.203 µM (active) | GI50 (ACHN): 4.98 µM (inactive) | GI50 (SK-OV-3): 0.292 µM (active) | GI50 (SW-620): 0.082 µM (active) | GI50 (HOP-92): 0.347 µM (active) | GI50 (MDA-N): 0.144 µM (active) | GI50 (HOP-62): 0.579 µM (active) | GI50 (TK-10): 6.97 µM (inactive) | GI50 (LXFL 529): 0.191 µM (active) | GI50 (U-251): 0.497 µM (active) | GI50 (MOLT-4): 0.083 µM (active) | GI50 (SNB-75): 0.776 µM (active) | GI50 (UO-31): 7.11 µM (inactive) | GI50 (NCI-H226): 7.35 µM (inactive) | GI50 (SF-539): 0.417 µM (active) | GI50 (786-0): 2.03 µM (inactive) | GI50 (SR): 0.0396 µM (active) | GI50 (DU-145): 0.231 µM (active) | GI50 (MCF7): 0.125 µM (active) | GI50 (KM-20L2): 0.188 µM (active) | GI50 (PC-3): 0.228 µM (active) | GI50 (OVCAR-5): 1.47 µM (inactive) | GI50 (SF-295): 1.24 µM (inactive) | GI50 (SNB-78): 1.42 µM (inactive) | GI50 (LOX IMVI): 0.471 µM (active) | GI50 (HCT-116): 0.297 µM (active) | GI50 (DMS-273): 0.225 µM (active) | GI50 (A549): 2.51 µM (inactive) | GI50 (SK-MEL-5): 0.268 µM (active) | GI50 (HCT-15): 5.6 µM | GI50 (HCC 2998): 0.951 µM (active) | GI50 (NCI-H522): 0.0863 µM (active) | GI50 (Malme-3M): 0.225 µM (active) | GI50 (RXF 393): 0.316 µM (active) | GI50 (MDA-MB-435): 0.0998 µM (active) | GI50 (HT-29): 0.139 µM (active) | GI50 (DMS-114): 0.406 µM (active) | GI50 (KM12): 0.255 µM (active) | GI50 (SNB-19): 3.78 µM (inactive) | GI50 (HOP-18): 0.0925 µM (active) | GI50 (SF-268): 2.19 µM (inactive) | GI50 (A498): 3.49 µM (inactive) | GI50 (SK-MEL-2): 1.69 µM (inactive) | GI50 (OVCAR-4): 3.2 µM (inactive) | GI50 (M14): 1.02 µM (active) | GI50 (EKVX): 10.5 µM (inactive) | GI50 (UACC-62): 0.274 µM (active) | GI50 (OVCAR-8): 7.28 µM (inactive) | GI50 (IGROV-1): 0.221 µM (active)
